Results from PubChem BioAssay AID248 (DTP/NCI, 2004).
Where “and” joins values, the source holds several entries; their conditions need not be identical. Equal entries are not always repeated. Toxic doses and inconclusive results are not listed. Cut-off read from the data, not from the text of the source: active = T/C of 150% or more; inactive = T/C below 125%.

Tested on: L1210 leukemia ip in BDF1 mice, survival T/C
Experiment: NCI In Vivo Anticancer Drug Screen. Data for tumor model L1210 Leukemia (intraperitoneal) in B6D2F1 (BDF1) mice
Conditions: endpoint: mean survival time, higher = longer survival
How it was run: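 Tumor cells were implanted, animals were treated, and survival was followed. The result divides the treated measurement by the vehicle-control measurement.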

[1] = dose: 100.0 mg/kg/injection, schedule: Q01DX009 (ip), vehicle: Klucel (hydroxypropylcellulose) (HPC)
[2] = dose: 200.0 mg/kg/injection, schedule: Q01DX009 (ip), vehicle: Klucel (hydroxypropylcellulose) (HPC)
[3] = dose: 400.0 mg/kg/injection, schedule: Q01DX009 (ip), vehicle: Klucel (hydroxypropylcellulose) (HPC)
[4] = dose: 100.0 mg/kg/injection, schedule: Q01DX001 (ip), vehicle: other
[5] = dose: 200.0 mg/kg/injection, schedule: Q01DX001 (ip), vehicle: other
[6] = dose: 400.0 mg/kg/injection, schedule: Q01DX001 (ip), vehicle: other
[7] = dose: 100.0 mg/kg/injection, schedule: Q04DX002 (ip), vehicle: saline with Tween-80
[8] = dose: 200.0 mg/kg/injection, schedule: Q04DX002 (ip), vehicle: saline with Tween-80
[9] = dose: 400.0 mg/kg/injection, schedule: Q04DX002 (ip), vehicle: saline with Tween-80
[10] = dose: 100.0 mg/kg/injection, schedule: Q01DX009 (ip), vehicle: saline with Tween-80
[11] = dose: 200.0 mg/kg/injection, schedule: Q01DX009 (ip), vehicle: saline with Tween-80
[12] = dose: 10.0 mg/kg/injection, schedule: Q01DX001 (ip), vehicle: saline
[13] = dose: 100.0 mg/kg/injection, schedule: Q01DX Z (ip), vehicle: methylcellulose (MC)

Measured: T/C

O=C(c1ccc(C(=O)N(c2ccccc2)C2CCCCC2)cc1)N(c1ccccc1)C1CCCCC1
inactive: [1] 96 % of control | [2] 100 % of control | [3] 86 % of control

OCC1OC(c2[nH]nc3c(Cl)ncnc23)C(O)C1O (stereo unspecified)
inactive: dose: 100.0 mg/kg/injection, schedule: Q01DX005 (ip), vehicle: saline 108 % of control | dose: 200.0 mg/kg/injection, schedule: Q01DX005 (ip), vehicle: saline 120 % of control

CC(=O)Nc1ccc(C(=O)C(O)c2ccc(NC(C)=O)cc2)cc1 (stereo unspecified)
inactive: dose: 50.0 mg/kg/injection, schedule: Q01DX001 (ip), vehicle: other 100 % of control | [4] 92 % of control | [5] 105 % of control | [6] 88 % of control

CCCN1CC2=C1C(=O)c1ccccc1C2=O
inactive: [4] 97 % of control | [5] 93 % of control | [6] 87 % of control

CCOC(=O)c1ccc2c(ccc3ccccc32)n1
inactive: dose: 25.0 mg/kg/injection, schedule: Q01DX001 (ip), vehicle: carboxymethylcellulose (CMC) 97 % of control | dose: 25.0 mg/kg/injection, schedule: Q01DX009 (ip), vehicle: carboxymethylcellulose (CMC) 98 % of control and 102 % of control | dose: 25.0 mg/kg/injection, schedule: Q04DX002 (ip), vehicle: carboxymethylcellulose (CMC) 93 % of control and 104 % of control | dose: 25.0 mg/kg/injection, schedule: Q04DX003 (ip), vehicle: carboxymethylcellulose (CMC) 108 % of control | dose: 50.0 mg/kg/injection, schedule: Q01DX001 (ip), vehicle: carboxymethylcellulose (CMC) 102 % of control | dose: 50.0 mg/kg/injection, schedule: Q01DX009 (ip), vehicle: carboxymethylcellulose (CMC) 94 % of control and 98 % of control | dose: 50.0 mg/kg/injection, schedule: Q04DX002 (ip), vehicle: carboxymethylcellulose (CMC) 97 % of control | dose: 50.0 mg/kg/injection, schedule: Q04DX003 (ip), vehicle: carboxymethylcellulose (CMC) 102 % of control | dose: 100.0 mg/kg/injection, schedule: Q01DX001 (ip), vehicle: carboxymethylcellulose (CMC) 94 % of control | dose: 100.0 mg/kg/injection, schedule: Q01DX009 (ip), vehicle: carboxymethylcellulose (CMC) 100 % of control | dose: 100.0 mg/kg/injection, schedule: Q04DX002 (ip), vehicle: carboxymethylcellulose (CMC) 93 % of control and 101 % of control | dose: 100.0 mg/kg/injection, schedule: Q04DX003 (ip), vehicle: carboxymethylcellulose (CMC) 105 % of control

SC1(SC2(S)CCCCC2)CCCCC1
inactive: dose: 100.0 mg/kg/injection, schedule: Q04DX003 (ip), vehicle: saline with Tween-80 97 % of control | dose: 200.0 mg/kg/injection, schedule: Q04DX003 (ip), vehicle: saline with Tween-80 101 % of control | dose: 400.0 mg/kg/injection, schedule: Q04DX003 (ip), vehicle: saline with Tween-80 113 % of control

CSC(=S)NN
inactive: dose: 2.0 mg/kg/injection, schedule: Q04DX002 (ip), vehicle: saline 113 % of control | dose: 4.0 mg/kg/injection, schedule: Q04DX002 (ip), vehicle: saline 110 % of control | dose: 8.0 mg/kg/injection, schedule: Q04DX002 (ip), vehicle: saline 94 % of control and 108 % of control

Cc1nc2c(O)cccc2cc1CO
inactive: [1] 95 % of control | [2] 93 % of control

Cc1[nH]c2ccccc2c1C(c1cc(Cl)cc(Cl)c1O)c1c(C)[nH]c2ccccc12
inactive: [7] 87 % of control | [8] 94 % of control | [9] 91 % of control

CC(C(=O)C(Cc1ccccc1)c1ccccc1)C1CCC2C3C(OC=O)CC4CC(OC=O)CCC4(C)C3CC(OC=O)C12C (stereo unspecified)
inactive: dose: 12.5 mg/kg/injection, schedule: Q01DX009 (ip), vehicle: saline with Tween-80 90 % of control | dose: 25.0 mg/kg/injection, schedule: Q01DX009 (ip), vehicle: saline with Tween-80 87 % of control | dose: 50.0 mg/kg/injection, schedule: Q01DX009 (ip), vehicle: saline with Tween-80 90 % of control | [10] 91 % of control | [11] 88 % of control

O=S1(=O)CC2=C1/C=C/CCCC2
inactive: dose: 5.0 mg/kg/injection, schedule: Q04DX002 (ip), vehicle: Klucel (hydroxypropylcellulose) (HPC) 90 % of control | [12] 102 % of control | dose: 10.0 mg/kg/injection, schedule: Q04DX002 (ip), vehicle: Klucel (hydroxypropylcellulose) (HPC) 96 % of control

Cc1ccc(Nc2cc(=S)nc(N)[nH]2)cc1C
inactive: [13] 103 % of control | dose: 200.0 mg/kg/injection, schedule: Q01DX Z (ip), vehicle: methylcellulose (MC) 95 % of control

O=C1C=Cc2ccccc2C1=O
inactive: dose: 0.78 mg/kg/injection, schedule: Q01DX001 (ip), vehicle: Klucel (hydroxypropylcellulose) (HPC) 103 % of control | dose: 1.56 mg/kg/injection, schedule: Q01DX001 (ip), vehicle: Klucel (hydroxypropylcellulose) (HPC) 95 % of control | dose: 3.13 mg/kg/injection, schedule: Q01DX001 (ip), vehicle: Klucel (hydroxypropylcellulose) (HPC) 88 % of control

Cc1c(C)c(C)c(CNNC(=S)Nc2cccc(Cl)c2)c(C)c1C
inactive: [1] 95 % of control | [2] 91 % of control | [3] 91 % of control

CCCCCCCCCCCCCCCC[n+]1ccc(C#N)cc1
inactive: dose: 1.25 mg/kg/injection, schedule: Q01DX009 (ip), vehicle: saline 89 % of control | dose: 2.5 mg/kg/injection, schedule: Q01DX009 (ip), vehicle: saline 97 % of control | dose: 2.5 mg/kg/injection, schedule: Q04DX003 (ip), vehicle: saline 97 % of control | dose: 5.0 mg/kg/injection, schedule: Q01DX009 (ip), vehicle: saline 94 % of control | dose: 5.0 mg/kg/injection, schedule: Q04DX003 (ip), vehicle: saline 101 % of control | [12] 90 % of control | dose: 10.0 mg/kg/injection, schedule: Q04DX003 (ip), vehicle: saline 94 % of control

COc1ccc(NC(=O)Oc2cc(C)c(Cl)cc2C(C)C)c(OC)c1
inactive: [1] 101 % of control | [2] 101 % of control | [3] 92 % of control

O=C1CCN(Cc2ccccc2)C(=S)N1
inactive: [13] 93 % of control

Cc1cccc(Cl)c1OCC(N)=O
inactive: [7] 111 % of control | [8] 103 % of control | [9] 111 % of control

CCN=C(N)C(N)=NCC
inactive: dose: 100.0 mg/kg/injection, schedule: Q01DX009 (ip), vehicle: saline 94 % of control | dose: 100.0 mg/kg/injection, schedule: Q04DX003 (ip), vehicle: saline 103 % of control | dose: 200.0 mg/kg/injection, schedule: Q01DX009 (ip), vehicle: saline 94 % of control | dose: 200.0 mg/kg/injection, schedule: Q04DX003 (ip), vehicle: saline 100 % of control | dose: 400.0 mg/kg/injection, schedule: Q01DX009 (ip), vehicle: saline 89 % of control | dose: 400.0 mg/kg/injection, schedule: Q04DX003 (ip), vehicle: saline 97 % of control

CCCCCCCCCCCCCC[N+]1(C)CCS(=O)CC1 (stereo unspecified)
inactive: dose: 25.0 mg/kg/injection, schedule: Q01DX001 (ip), vehicle: saline 102 % of control | dose: 50.0 mg/kg/injection, schedule: Q01DX001 (ip), vehicle: saline 107 % of control | dose: 100.0 mg/kg/injection, schedule: Q01DX001 (ip), vehicle: saline 102 % of control

N#CCCC(=O)c1cccnc1
inactive: dose: 100.0 mg/kg/injection, schedule: Q04DX002 (ip), vehicle: saline 108 % of control | dose: 200.0 mg/kg/injection, schedule: Q04DX002 (ip), vehicle: saline 90 % of control | dose: 400.0 mg/kg/injection, schedule: Q04DX002 (ip), vehicle: saline 93 % of control

O=C(O)c1ccc(N=Cc2cccc([N+](=O)[O-])c2)cc1
inactive: dose: 100.0 mg/kg/injection, schedule: Q01DX001 (ip), vehicle: saline with Tween-80 106 % of control | [10] 100 % of control and 91 % of control | [7] 97 % of control and 91 % of control | dose: 200.0 mg/kg/injection, schedule: Q01DX001 (ip), vehicle: saline with Tween-80 92 % of control | [11] 98 % of control and 122 % of control | [8] 93 % of control and 91 % of control | dose: 400.0 mg/kg/injection, schedule: Q01DX001 (ip), vehicle: saline with Tween-80 95 % of control | dose: 400.0 mg/kg/injection, schedule: Q01DX009 (ip), vehicle: saline with Tween-80 102 % of control and 88 % of control | [9] 93 % of control and 88 % of control
